# Where no end group is shown, it is not given here.
# Test system: drug-resistant Mycobacterium tuberculosis
# Conditions: Mycobacterium tuberculosis resistant against PAS, streptomycin and isoniazid; Middlebrook 7H12, seven days; peptide 10 micrograms per ml
substance,measurement,value
MQMKKVLDS-OH [AIP-1],% inhibition,100.0%

# From patent US20100234306A1, “USE OF A PEPTIDE AS A THERAPEUTIC AGENT” (priority 2007, published 2010)
